Here are results for 8 compounds from PubChem BioAssay (NCI).

The GI50 is the concentration that inhibits growth by half. A word on the TGI: it is the concentration at which net growth stops. Low readings indicate greater sensitivity of the cells, high ones lower sensitivity of the cells.

Some test systems named below: A498 renal; A549 NSCLC; HCC-2998 colon; MOLT-4 leukemia; OVCAR-8 ovarian; RXF 393 renal; SK-MEL-2 melanoma; SK-MEL-5 melanoma; SNB-19 CNS; UACC-257 melanoma.
Common to all, as to experiment: DTP human tumour cell line panel, 48 h

Several values for one entry are separate records, joined by “and”; a condition that tells them apart may be missing. Identical values can stand only once.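 These data come from cells grown in 96-well plates and exposed to compound for 48 hours at five concentrations. GI50 is the concentration that inhibits growth by half. TGI: concentration producing complete growth inhibition.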

Turning to `Cc1ccc(/C=C2\CNC/C(=C\c3ccc(C)cc3)C2=O)cc1`, the GI50 with A498 renal was 1.63 µM; with A549 NSCLC it was 0.861 µM; in the assay on HCC-2998 colon, 1.42 µM; in the assay on MOLT-4 leukemia it was 1.81 µM; in the assay on OVCAR-8 ovarian, 0.587 µM; in the assay with RXF 393 renal it was 2.24 µM and 1.81 µM. The GI50 with SK-MEL-2 melanoma is 1.9 µM; in the assay on SK-MEL-5 melanoma, 2.1 µM; in the assay on SNB-19 CNS, 1.93 µM; with UACC-257 melanoma, 1.71 µM. Further, the total growth inhibition concentration (TGI) in the assay on A498 renal is 3.36 µM and 3.56 µM; in the assay with A549 NSCLC, 2.9 µM and > 27.1 µM; in the assay on HCC-2998 colon, 2.77 µM and 3.07 µM; in the assay on MOLT-4 leukemia it was 4.84 µM and 19.2 µM; with OVCAR-8 ovarian, 2.44 µM and 5.63 µM; with RXF 393 renal, 3.84 µM and 3.29 µM. Also, the TGI is 4.1 µM and 6.03 µM in the assay on SK-MEL-5 melanoma; 4.78 µM and 15 µM in the assay on SNB-19 CNS; 3.55 µM and 12.8 µM with UACC-257 melanoma.
Take `c1ccc(NC[Si]23OCCN(CCO2)CCO3)cc1`: the TGI with A498 renal, in the assay on A549 NSCLC, in the assay with HCC-2998 colon, in the assay with MOLT-4 leukemia, with OVCAR-8 ovarian and with RXF 393 renal was > 100 µM each time. Also, the TGI with SK-MEL-2 melanoma, in the assay on SK-MEL-5 melanoma, in the assay on SNB-19 CNS and in the assay with UACC-257 melanoma was > 100 µM throughout.
Turning to `CN(C)C(=O)SC1=C(c2c(Cl)cccc2Cl)C(=O)c2ccccc21`, the GI50 in the assay on A498 renal is 16.1 µM; with A549 NSCLC, 24.8 µM; in the assay on HCC-2998 colon, 15.6 µM; with MOLT-4 leukemia, 2.5 µM; with OVCAR-8 ovarian, 6.38 µM; with RXF 393 renal, 4.18 µM. The GI50 with SK-MEL-2 melanoma was 7.12 µM; with SK-MEL-5 melanoma it was 7.16 µM; with SNB-19 CNS, 15.8 µM; in the assay with UACC-257 melanoma it was 5.16 µM. Also, the TGI in the assay with A498 renal is 31.7 µM; in the assay with A549 NSCLC, > 55.7 µM; with HCC-2998 colon, 29.2 µM; in the assay on MOLT-4 leukemia, 7.06 µM; with OVCAR-8 ovarian it was 17.1 µM; in the assay with RXF 393 renal, 8.59 µM. Besides, the concentration for total growth inhibition (TGI) in the assay on SK-MEL-2 melanoma worked out at 13.7 µM; with SK-MEL-5 melanoma, 19.2 µM; in the assay on SNB-19 CNS it was 29.4 µM; in the assay with UACC-257 melanoma, 9.81 µM.
As for `CN(C)CCCN1c2ccccc2Sc2ccc(Cl)cc21`, the GI50 is 10.5 µM and 3.46 µM with A498 renal; 3.31 µM and 3.37 µM with A549 NSCLC; 1.97 µM with HCC-2998 colon; 4.78 µM and 6.84 µM in the assay with MOLT-4 leukemia; 4.07 µM and 9.24 µM in the assay on OVCAR-8 ovarian; 3.16 µM and 2.85 µM in the assay on RXF 393 renal. Moreover, the GI50 was 3.81 µM and 5.52 µM in the assay with SK-MEL-2 melanoma; 1.71 µM and 1.77 µM with SK-MEL-5 melanoma; 7.01 µM and 11.9 µM with SNB-19 CNS; 2.08 µM and 3.24 µM with UACC-257 melanoma. Also, the concentration for total growth inhibition (TGI) in the assay with A498 renal is 23.7 µM and 16.6 µM; with A549 NSCLC, 11.3 µM and 14.1 µM; in the assay with HCC-2998 colon, 4.14 µM; with MOLT-4 leukemia, 18.4 µM and 23.7 µM; in the assay with OVCAR-8 ovarian it was 15.5 µM and 22.8 µM; in the assay on RXF 393 renal it was 12.2 µM and 11 µM. The TGI in the assay on SK-MEL-2 melanoma is 13.4 µM and 19.5 µM; in the assay on SK-MEL-5 melanoma, 3.11 µM and 3.35 µM; in the assay on SNB-19 CNS, 20.9 µM and 25 µM; in the assay with UACC-257 melanoma, 4.33 µM and 13 µM.
On to `Cc1cc(NC(=O)NC(=O)c2ccccc2N(C)C)ccc1Oc1ncc(Br)cn1`, for which the TGI with A498 renal was 6.71 µM; with A549 NSCLC it was > 63.1 µM; in the assay on HCC-2998 colon, 11.8 µM; with MOLT-4 leukemia it was 39.7 µM; with OVCAR-8 ovarian, > 68.1 µM; in the assay with RXF 393 renal it was 0.698 µM and 6.37 µM. Further, the total growth inhibition concentration (TGI) is > 46.4 µM in the assay with SK-MEL-2 melanoma, 4.11 µM in the assay with SK-MEL-5 melanoma, > 81.5 µM in the assay with SNB-19 CNS and > 100 µM with UACC-257 melanoma. Also, the GI50 in the assay with A549 NSCLC is 0.584 µM; in the assay with HCC-2998 colon it was 1.1 µM; in the assay with MOLT-4 leukemia it was 0.533 µM; with OVCAR-8 ovarian, 0.614 µM; in the assay with RXF 393 renal it was 0.242 µM; with SNB-19 CNS, 0.749 µM.
Take `Cn1cc(CO)c2ccccc21`: the GI50 in the assay on A498 renal is 17.6 µM; in the assay on A549 NSCLC, 64.3 µM; with HCC-2998 colon it was > 100 µM; with MOLT-4 leukemia, 40 µM; in the assay on OVCAR-8 ovarian it was > 100 µM; with RXF 393 renal, 49.7 µM. The GI50 is 36.2 µM with SK-MEL-2 melanoma, 48.6 µM in the assay with SK-MEL-5 melanoma, > 100 µM with SNB-19 CNS and > 100 µM in the assay with UACC-257 melanoma. Further, the TGI is 73.1 µM with A498 renal; > 100 µM in the assay on A549 NSCLC; > 100 µM in the assay on HCC-2998 colon; > 100 µM with MOLT-4 leukemia; > 100 µM in the assay with OVCAR-8 ovarian; > 100 µM in the assay on RXF 393 renal. In addition, the TGI with SK-MEL-2 melanoma, in the assay with SK-MEL-5 melanoma, in the assay on SNB-19 CNS and in the assay on UACC-257 melanoma was > 100 µM in each case.
As to `COc1ccc2cc(-c3c(-c4ccncc4)nc(-c4ccc(S(C)=O)cc4C)n3C)ccc2c1` (stereo not given), the GI50 in the assay on A498 renal is 8.32 µM; with A549 NSCLC, 15.5 µM; in the assay with HCC-2998 colon, > 25 µM; in the assay on MOLT-4 leukemia, 17.4 µM; with OVCAR-8 ovarian, 24.7 µM; in the assay with RXF 393 renal, > 24.2 µM. The GI50 with SK-MEL-2 melanoma is > 25 µM; with SK-MEL-5 melanoma it was 7.58 µM; with SNB-19 CNS, > 25 µM; in the assay with UACC-257 melanoma it was 14.8 µM. For the same compound, the concentration for total growth inhibition (TGI) with A498 renal, with A549 NSCLC, in the assay with HCC-2998 colon, in the assay with MOLT-4 leukemia, in the assay on OVCAR-8 ovarian and with RXF 393 renal was > 25 µM each time. In addition, the TGI in the assay on SK-MEL-2 melanoma is > 25 µM; in the assay with SK-MEL-5 melanoma, > 21.6 µM; with SNB-19 CNS, > 25 µM; in the assay on UACC-257 melanoma it was > 25 µM.
On to `CC(C)(CO)N=Cc1ccccc1[O-].CC(C)(CO)N=Cc1ccccc1[O-].[Co+2]`, for which the GI50 was > 100 µM in the assay with A498 renal; > 100 µM with A549 NSCLC; 75.4 µM in the assay on HCC-2998 colon; 8.39 µM in the assay with MOLT-4 leukemia; > 100 µM in the assay on OVCAR-8 ovarian; > 100 µM with RXF 393 renal. For the same compound, the GI50 is > 76.5 µM in the assay with SK-MEL-2 melanoma, 42.5 µM with SK-MEL-5 melanoma, > 100 µM in the assay on SNB-19 CNS and 30.1 µM with UACC-257 melanoma. The concentration for total growth inhibition (TGI) in the assay on A498 renal, in the assay with A549 NSCLC, in the assay on HCC-2998 colon, in the assay on MOLT-4 leukemia, with OVCAR-8 ovarian and in the assay on RXF 393 renal was > 100 µM throughout. The concentration for total growth inhibition (TGI) with SK-MEL-2 melanoma, with SK-MEL-5 melanoma, with SNB-19 CNS and in the assay with UACC-257 melanoma was > 100 µM in each case.
